pIC50: −log10 of the molar value. Activity calls are given as the source filed them. The calls are words filed in the database; no cut-off is given here.
Columns and labels:
[1] = biological target: Polynucleotide kinase (Enterobacteria phage T4) (UniProt P06855); assay: Inhibition of T4 polynucleotide kinase at 100 uM relative to control; conditions: Tequatrovirus T4
Escherichia phage T7 = assay: Inhibition of T7 RNA polymerase […] at 100 uM relative to control
[2] = biological target: Deoxyribonuclease-1 (Bos taurus) (UniProt P00639); assay: Inhibition of bovine deoxyribonuclease 1 at 100 uM relative to control
[3] = biological target: Inosine-5'-monophosphate dehydrogenase 2 (Mus musculus) (UniProt P24547); assay: Inhibition of mouse IMP dehydrogenase 2 at 100 uM relative to control
Escherichia coli = assay: Inhibition of Escherichia coli DNA polymerase 1 Klenow fragment at 100 uM
[4] = biological target: T1, DNA polymerase subunit gamma-1 (Homo sapiens) (UniProt P54098); assay: Inhibition of human DNA polymerase gamma at 100 uM
T1 sequence (whole entry): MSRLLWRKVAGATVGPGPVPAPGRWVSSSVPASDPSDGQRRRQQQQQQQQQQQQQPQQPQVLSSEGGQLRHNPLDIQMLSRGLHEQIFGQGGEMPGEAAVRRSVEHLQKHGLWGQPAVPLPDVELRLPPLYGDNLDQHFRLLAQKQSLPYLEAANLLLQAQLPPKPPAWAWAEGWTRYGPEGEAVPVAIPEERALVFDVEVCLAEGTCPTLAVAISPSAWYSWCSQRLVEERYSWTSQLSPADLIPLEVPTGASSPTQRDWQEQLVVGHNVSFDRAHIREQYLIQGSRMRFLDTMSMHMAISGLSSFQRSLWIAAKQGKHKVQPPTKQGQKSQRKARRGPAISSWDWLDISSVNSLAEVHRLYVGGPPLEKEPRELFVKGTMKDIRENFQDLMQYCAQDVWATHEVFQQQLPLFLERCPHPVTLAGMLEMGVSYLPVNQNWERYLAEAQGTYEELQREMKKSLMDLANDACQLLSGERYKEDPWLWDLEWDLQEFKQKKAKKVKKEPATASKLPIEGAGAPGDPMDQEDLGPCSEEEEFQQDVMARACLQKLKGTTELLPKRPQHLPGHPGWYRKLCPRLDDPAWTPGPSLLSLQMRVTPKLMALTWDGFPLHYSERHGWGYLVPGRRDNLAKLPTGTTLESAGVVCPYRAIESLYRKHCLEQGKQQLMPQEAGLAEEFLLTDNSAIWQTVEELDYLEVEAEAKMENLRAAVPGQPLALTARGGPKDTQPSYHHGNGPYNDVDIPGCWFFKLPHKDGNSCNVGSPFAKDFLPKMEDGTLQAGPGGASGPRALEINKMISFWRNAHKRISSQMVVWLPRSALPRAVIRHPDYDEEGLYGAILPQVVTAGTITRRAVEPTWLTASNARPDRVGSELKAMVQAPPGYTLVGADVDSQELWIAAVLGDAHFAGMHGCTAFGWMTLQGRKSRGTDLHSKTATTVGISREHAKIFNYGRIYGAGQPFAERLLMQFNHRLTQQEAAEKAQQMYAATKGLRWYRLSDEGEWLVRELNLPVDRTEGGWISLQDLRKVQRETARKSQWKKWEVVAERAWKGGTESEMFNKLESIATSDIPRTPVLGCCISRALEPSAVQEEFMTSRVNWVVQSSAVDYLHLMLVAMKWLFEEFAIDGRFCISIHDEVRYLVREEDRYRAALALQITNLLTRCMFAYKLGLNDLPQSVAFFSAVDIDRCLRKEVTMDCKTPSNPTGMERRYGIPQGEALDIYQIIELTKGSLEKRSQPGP

[5] = biological target: DNA polymerase beta (Rattus norvegicus) (UniProt P06766); assay: Inhibition of rat DNA polymerase beta at 100 uM
[6] = biological target: DNA nucleotidylexotransferase (Bos taurus) (UniProt P06526); assay: Inhibition of calf terminal deoxynucleotidyl transferase
Brassica oleracea = assay: Inhibition of cauliflower DNA polymerase alpha at 100 uM
[7] = biological target: T2, DNA topoisomerase 1 (Homo sapiens) (UniProt P11387); assay: Inhibition of human DNA topoisomerase 1 at 100 uM relative to control
T2 sequence (whole entry): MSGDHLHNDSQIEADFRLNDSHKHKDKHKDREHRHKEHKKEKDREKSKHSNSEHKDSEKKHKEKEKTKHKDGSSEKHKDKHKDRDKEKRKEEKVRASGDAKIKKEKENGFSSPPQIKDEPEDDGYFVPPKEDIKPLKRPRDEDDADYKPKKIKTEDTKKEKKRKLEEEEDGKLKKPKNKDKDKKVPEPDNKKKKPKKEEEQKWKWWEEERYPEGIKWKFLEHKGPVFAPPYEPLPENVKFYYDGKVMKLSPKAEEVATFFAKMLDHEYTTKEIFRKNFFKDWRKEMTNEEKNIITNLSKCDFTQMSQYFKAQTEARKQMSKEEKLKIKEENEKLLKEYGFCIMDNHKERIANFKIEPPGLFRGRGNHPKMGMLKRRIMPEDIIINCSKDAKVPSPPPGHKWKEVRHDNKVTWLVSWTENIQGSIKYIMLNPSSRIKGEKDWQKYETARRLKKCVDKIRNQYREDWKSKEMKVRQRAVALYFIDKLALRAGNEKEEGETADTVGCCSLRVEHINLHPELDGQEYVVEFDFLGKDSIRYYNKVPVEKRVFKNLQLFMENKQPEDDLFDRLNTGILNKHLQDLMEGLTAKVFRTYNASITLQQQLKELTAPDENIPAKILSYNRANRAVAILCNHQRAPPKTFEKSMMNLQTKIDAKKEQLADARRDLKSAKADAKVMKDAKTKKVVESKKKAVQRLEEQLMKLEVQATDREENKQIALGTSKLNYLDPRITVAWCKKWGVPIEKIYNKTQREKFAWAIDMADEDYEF

[8] = biological target: DNA topoisomerase 2-alpha (Homo sapiens) (UniProt P11388); assay: Inhibition of human DNA topoisomerase 2 at 100 uM relative to control
[9] = biological target: T3, DNA polymerase subunit gamma-1 (Homo sapiens, UniProt P54098); assay: Inhibition of human DNA polymerase gamma
T3 sequence (P54098 whole entry): T1 sequence (whole entry)

[10] = biological target: Human immunodeficiency virus type 1 reverse transcriptase (Human immunodeficiency virus 1) (UniProt Q72547); assay: Inhibition of HIV1 reverse transcriptase at 100 uM relative to control
[11] = biological target: Telomerase reverse transcriptase (Homo sapiens) (UniProt O14746); assay: Inhibition of human telomerase at 100 uM relative to control
Tequatrovirus T4 = assay: Inhibition of T4 DNA polymerase at 100 uM
Oncorhynchus masou = assay: Inhibition of cherry salmon DNA polymerase delta at 100 uM
Bos taurus = species: Bos taurus; assay: Inhibition of calf DNA polymerase alpha at 100 uM relative to control
DNA polymerase beta = DNA polymerase beta (Rattus norvegicus, UniProt P06766); assay: Inhibition of rat DNA polymerase beta
Thermus aquaticus = assay: Inhibition of Thermus aquaticus DNA polymerase at 100 uM

Telomerase reverse transcriptase (Homo sapiens), sequence (O14746 whole entry): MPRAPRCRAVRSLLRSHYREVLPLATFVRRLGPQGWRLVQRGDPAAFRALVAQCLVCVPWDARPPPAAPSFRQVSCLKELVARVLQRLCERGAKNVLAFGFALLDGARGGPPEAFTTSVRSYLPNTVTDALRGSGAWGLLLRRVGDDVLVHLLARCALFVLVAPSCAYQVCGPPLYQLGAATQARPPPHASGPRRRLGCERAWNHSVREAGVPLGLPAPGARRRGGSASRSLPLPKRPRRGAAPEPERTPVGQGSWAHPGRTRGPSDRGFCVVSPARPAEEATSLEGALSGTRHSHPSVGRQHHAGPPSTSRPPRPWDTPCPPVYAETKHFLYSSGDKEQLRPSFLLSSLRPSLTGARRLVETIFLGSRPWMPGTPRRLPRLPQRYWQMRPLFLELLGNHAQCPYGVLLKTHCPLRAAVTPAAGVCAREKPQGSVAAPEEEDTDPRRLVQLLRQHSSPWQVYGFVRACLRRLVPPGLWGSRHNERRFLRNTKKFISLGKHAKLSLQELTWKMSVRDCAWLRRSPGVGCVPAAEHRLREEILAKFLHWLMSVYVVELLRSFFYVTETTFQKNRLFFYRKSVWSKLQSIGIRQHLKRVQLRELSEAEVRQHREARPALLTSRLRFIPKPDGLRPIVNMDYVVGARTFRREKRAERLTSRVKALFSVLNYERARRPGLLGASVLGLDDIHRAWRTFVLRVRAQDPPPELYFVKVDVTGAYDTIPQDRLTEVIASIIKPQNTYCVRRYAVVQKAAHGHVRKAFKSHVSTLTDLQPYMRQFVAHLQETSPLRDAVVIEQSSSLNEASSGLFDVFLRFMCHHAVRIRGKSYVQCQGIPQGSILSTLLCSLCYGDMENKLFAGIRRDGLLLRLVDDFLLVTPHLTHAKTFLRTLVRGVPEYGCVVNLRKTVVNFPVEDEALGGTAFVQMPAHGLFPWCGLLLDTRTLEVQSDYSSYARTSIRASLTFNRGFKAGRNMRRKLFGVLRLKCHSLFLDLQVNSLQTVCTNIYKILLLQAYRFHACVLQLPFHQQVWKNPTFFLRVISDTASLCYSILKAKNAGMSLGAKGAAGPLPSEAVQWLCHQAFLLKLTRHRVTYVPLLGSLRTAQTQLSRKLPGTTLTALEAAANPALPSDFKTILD
Polynucleotide kinase (Enterobacteria phage T4), sequence (P06855 whole entry): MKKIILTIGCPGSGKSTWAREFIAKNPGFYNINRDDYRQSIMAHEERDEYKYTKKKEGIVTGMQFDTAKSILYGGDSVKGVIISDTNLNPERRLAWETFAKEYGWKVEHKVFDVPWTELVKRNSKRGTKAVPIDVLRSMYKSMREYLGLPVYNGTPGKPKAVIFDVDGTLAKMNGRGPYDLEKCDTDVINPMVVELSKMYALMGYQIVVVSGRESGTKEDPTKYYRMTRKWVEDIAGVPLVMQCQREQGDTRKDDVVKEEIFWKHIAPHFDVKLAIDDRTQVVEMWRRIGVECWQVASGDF
Inosine-5'-monophosphate dehydrogenase 2 (Mus musculus), sequence (P24547 whole entry, looked up, the tested form may be a part): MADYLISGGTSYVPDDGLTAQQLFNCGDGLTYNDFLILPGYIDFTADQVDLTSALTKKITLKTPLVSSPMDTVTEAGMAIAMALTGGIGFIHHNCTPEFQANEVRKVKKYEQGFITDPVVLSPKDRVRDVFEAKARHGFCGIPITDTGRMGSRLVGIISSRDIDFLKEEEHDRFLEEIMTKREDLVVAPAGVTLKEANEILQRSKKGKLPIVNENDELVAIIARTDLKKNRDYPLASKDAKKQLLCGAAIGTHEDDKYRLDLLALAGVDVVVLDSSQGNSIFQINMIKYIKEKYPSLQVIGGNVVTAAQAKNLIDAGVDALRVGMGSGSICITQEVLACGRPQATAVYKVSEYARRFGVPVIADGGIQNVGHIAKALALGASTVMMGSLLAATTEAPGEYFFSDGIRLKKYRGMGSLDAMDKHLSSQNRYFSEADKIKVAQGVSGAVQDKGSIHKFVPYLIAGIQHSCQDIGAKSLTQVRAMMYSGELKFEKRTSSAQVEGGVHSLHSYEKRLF
DNA nucleotidylexotransferase (Bos taurus), sequence (P06526 whole entry): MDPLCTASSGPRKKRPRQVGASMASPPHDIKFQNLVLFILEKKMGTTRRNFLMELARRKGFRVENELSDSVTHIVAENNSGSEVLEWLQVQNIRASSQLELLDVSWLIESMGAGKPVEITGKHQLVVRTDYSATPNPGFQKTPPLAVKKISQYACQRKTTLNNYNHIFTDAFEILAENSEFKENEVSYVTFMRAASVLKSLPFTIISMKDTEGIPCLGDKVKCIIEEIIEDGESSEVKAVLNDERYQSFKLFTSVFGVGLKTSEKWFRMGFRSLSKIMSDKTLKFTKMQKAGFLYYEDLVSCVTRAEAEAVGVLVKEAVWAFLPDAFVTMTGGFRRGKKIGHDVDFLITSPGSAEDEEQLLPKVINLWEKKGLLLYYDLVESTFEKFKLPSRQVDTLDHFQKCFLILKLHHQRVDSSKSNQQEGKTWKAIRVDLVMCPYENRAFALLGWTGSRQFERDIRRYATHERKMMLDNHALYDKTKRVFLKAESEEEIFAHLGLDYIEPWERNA
Deoxyribonuclease-1 (Bos taurus), sequence (P00639 whole entry): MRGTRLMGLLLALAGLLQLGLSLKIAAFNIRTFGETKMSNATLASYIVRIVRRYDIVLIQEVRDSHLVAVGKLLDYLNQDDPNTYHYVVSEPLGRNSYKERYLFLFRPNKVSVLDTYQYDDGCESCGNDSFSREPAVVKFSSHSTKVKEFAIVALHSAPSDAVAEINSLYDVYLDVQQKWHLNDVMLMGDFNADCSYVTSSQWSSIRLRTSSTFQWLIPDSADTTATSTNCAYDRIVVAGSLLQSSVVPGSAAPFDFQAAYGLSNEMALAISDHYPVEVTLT
DNA topoisomerase 2-alpha (Homo sapiens), sequence (P11388 whole entry): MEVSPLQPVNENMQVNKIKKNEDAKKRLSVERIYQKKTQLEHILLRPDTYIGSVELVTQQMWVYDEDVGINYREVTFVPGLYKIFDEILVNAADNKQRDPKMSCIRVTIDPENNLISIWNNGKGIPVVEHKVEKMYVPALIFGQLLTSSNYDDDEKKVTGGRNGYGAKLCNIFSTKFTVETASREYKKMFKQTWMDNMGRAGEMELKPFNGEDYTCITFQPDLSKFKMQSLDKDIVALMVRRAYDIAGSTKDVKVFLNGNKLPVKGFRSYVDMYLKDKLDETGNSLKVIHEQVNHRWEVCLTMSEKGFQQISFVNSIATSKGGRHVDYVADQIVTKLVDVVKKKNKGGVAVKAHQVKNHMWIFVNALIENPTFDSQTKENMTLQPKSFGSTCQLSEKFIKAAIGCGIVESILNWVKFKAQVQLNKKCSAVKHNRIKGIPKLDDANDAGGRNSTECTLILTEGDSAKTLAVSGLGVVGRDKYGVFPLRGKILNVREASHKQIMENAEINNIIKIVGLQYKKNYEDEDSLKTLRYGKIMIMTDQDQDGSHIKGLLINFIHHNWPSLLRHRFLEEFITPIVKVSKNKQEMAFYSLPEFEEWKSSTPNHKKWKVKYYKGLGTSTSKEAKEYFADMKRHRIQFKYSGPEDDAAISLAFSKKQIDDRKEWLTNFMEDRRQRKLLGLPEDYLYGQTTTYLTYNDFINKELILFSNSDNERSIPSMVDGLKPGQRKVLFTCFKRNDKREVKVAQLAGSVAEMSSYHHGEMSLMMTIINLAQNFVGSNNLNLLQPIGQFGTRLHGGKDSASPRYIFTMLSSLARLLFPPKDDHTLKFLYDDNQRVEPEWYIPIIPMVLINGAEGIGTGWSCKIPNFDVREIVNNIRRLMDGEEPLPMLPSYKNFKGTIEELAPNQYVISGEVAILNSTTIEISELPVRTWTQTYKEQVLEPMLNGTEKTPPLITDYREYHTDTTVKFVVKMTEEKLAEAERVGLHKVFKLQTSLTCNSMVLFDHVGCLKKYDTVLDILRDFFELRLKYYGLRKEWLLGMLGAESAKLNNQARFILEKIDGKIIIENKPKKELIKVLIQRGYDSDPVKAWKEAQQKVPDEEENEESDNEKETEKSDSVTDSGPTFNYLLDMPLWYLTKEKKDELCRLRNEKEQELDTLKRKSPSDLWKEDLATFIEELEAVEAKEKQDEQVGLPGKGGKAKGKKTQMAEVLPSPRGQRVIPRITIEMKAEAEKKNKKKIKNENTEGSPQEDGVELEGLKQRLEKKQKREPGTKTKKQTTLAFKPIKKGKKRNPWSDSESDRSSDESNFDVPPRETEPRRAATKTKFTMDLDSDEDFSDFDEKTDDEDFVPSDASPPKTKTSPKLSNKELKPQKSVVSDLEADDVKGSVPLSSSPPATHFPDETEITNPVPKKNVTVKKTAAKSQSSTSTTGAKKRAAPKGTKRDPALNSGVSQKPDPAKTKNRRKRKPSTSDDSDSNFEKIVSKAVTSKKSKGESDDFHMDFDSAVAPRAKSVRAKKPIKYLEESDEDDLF

| Activity [1] | Activity (Escherichia phage T7) | Activity [2] | Activity [3] | Activity (Escherichia coli) | Activity [4] | Activity [5] | Activity [6] | Activity (Brassica oleracea) | Activity [7] | Activity [8] | pIC50 [9] | Activity [10] | Activity [11] | Activity (Tequatrovirus T4) | Activity (Oncorhynchus masou) | Activity (Bos taurus) | pIC50 (DNA polymerase beta) | Activity (Thermus aquaticus) | SMILES |
| --- | --- | --- | --- | --- | --- | --- | --- | --- | --- | --- | --- | --- | --- | --- | --- | --- | --- | --- | --- |
| inactive | inactive | inactive | inactive | inactive | Active | Active | inactive | inactive | inactive | inactive | 4.14 | inactive | inactive | inactive | inactive | inactive | 4.22 | inactive | COc1cc(C)c(C(=O)O[C@]2(C)C(=O)C3=C(C=C(/C=C/CO)OC3)C[C@@H]2O)c(O)c1 [KASANOSIN B] |
| inactive | inactive | inactive | inactive | inactive | Active | Active | inactive | inactive | inactive | inactive | 4.46 | inactive | inactive | inactive | inactive | inactive | 4.56 | inactive | COc1cc(C)c(C(=O)O[C@H]2CC3=C(COC(/C=C/CO)=C3)C(=O)[C@@]2(C)O)c(O)c1 [KASANOSIN A] |
